# How the values were obtained:
# [1] = tested on: SMN2 minigene mRNA (SMN2-A minigene) in HEK293H cells; assay: SMN2 minigene mRNA splicing RT-qPCR assay in cultured cells; type: cell-based, human; settings: Homo sapiens, HEK293-H; concentration increasing full length SMN2 mRNA 1.5-fold relative to vehicle-treated cells; HEK293H cells with SMN2-A minigene, 24 hours, 7-point concentration data; read-out: EC1.5x for production of full length SMN2 mRNA
# Procedure, shortened: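 Cells are seeded, left to attach 4-6 h, then dosed with test compound across seven concentrations and incubated 24 h. Lysates undergo RT-qPCR with primers/probe specific to the exon 7-containing minigene transcript, co-amplified with GAPDH. Fold change over vehicle is calculated, and EC1.5× marks the 1.5-fold point.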
# [2] = tested on: Smn protein in SMA patient fibroblast cells (GM03813); assay: Smn protein assay in cultured cells (SMN HTRF); type: cell-based, human; settings: SMA patient fibroblast cells, 48 hours; for maximum fold (Fold) increase of Smn protein: 7-point concentration data, fold relative to vehicle control; for EC1.5x for Smn protein expression: 7-point concentration curve, SMN HTRF, concentration producing 1.5 times Smn protein vs DMSO vehicle control
# Procedure, shortened: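 Patient-derived SMA fibroblasts are plated, given compound for 48 h, then lysed in RIPA buffer with protease inhibitors. Lysate Smn is detected by an anti-SMN d2/kryptate HTRF pair incubated overnight. The normalized ΔF is divided by the vehicle ΔF to give fold change, from which EC1.5× and maximum fold are taken.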
Structure (SMILES),EC (1.5-fold increase) [1] [µM],maximum fold (Fold) increase of Smn protein [2],melting point [°C],EC1.5x for Smn protein expression [2]
"COc1ccc(-c2cc(=O)n3cc(N4CCNCC4)ccc3n2)cc1Cl [Compound 110, 2-(3-chloro-4-methoxyphenyl)-7-(piperazin-1-yl)-4H-pyrido[1,2-a]pyrimidin-4-one]",0.1 to 0.3,*** (a fold increase between >1.35 and ≤1.5 is indicated by three stars (***)),201 to 203,–
"COc1ccc(-c2cc(=O)n3cc(N4CCN[C@@H](C)C4)ccc3n2)cc1Cl [Compound 111, 2-(3-chloro-4-methoxyphenyl)-7-[(3S)-3-methylpiperazin-1-yl]-4H-pyrido[1,2-a]pyrimidin-4-one]",0.1 to 0.3,*** (a fold increase between >1.35 and ≤1.5 is indicated by three stars (***)),187 to 189,–
"CCOc1cc(-c2cc(=O)n3cc(N4CCNCC4)ccc3n2)ccc1OC [Compound 112, 2-(3-ethoxy-4-methoxyphenyl)-7-(piperazin-1-yl)-4H-pyrido[1,2-a]pyrimidin-4-one]",0.3 to 1,*** (a fold increase between >1.35 and ≤1.5 is indicated by three stars (***)),194 to 196,–
"CCOc1cc(-c2cc(=O)n3cc(N4CCN[C@@H](C)C4)ccc3n2)ccc1OC [Compound 113, 2-(3-ethoxy-4-methoxyphenyl)-7-[(3S)-3-methylpiperazin-1-yl]-4H-pyrido[1,2-a]pyrimidin-4-one]",1 to 3,*** (a fold increase between >1.35 and ≤1.5 is indicated by three stars (***)),159 to 162,–
"Cc1cn2cc(-c3cc(=O)n4cc(N5C[C@@H](C)N[C@@H](C)C5)ccc4n3)ccc2n1 [Compound 117, 7-[(3R,5S)-3,5-dimethylpiperazin-1-yl]-2-(2-methylimidazo[1,2-a]pyridin-6-yl)-4H-pyrido[1,2-a]pyrimidin-4-one]",< 0.1,**** (a fold increase between >1.5 and ≤1.65 is indicated by four stars (****)),181 to 186,**** (an EC1.5x≤0.3 μM is indicated by four stars (****))
"Cc1cn2cc(-c3cc(=O)n4cc(N5CCNCC5)ccc4n3)nc2c(C)n1 [Compound 118, 2-(6,8-dimethylimidazo[1,2-a]pyrazin-2-yl)-7-(piperazin-1-yl)-4H-pyrido[1,2-a]pyrimidin-4-one]",0.1 to 0.3,***** (a fold increase >1.65 is indicated by five stars (*****)),189 to 192,*** (an EC1.5× between >0.3 μM and ≤1 μM is indicated by three stars (***))
"Cc1cn2cc(-c3cc(=O)n4cc(N5CCN[C@@H](C)C5)ccc4n3)nc2c(C)n1 [Compound 119, 2-(6,8-dimethylimidazo[1,2-a]pyrazin-2-yl)-7-[(3S)-3-methylpiperazin-1-yl]-4H-pyrido[1,2-a]pyrimidin-4-one]",0.1 to 0.3,***** (a fold increase >1.65 is indicated by five stars (*****)),202 to 208,*** (an EC1.5× between >0.3 μM and ≤1 μM is indicated by three stars (***))
"Cc1cn2nc(-c3cc(=O)n4cc(N5CCN[C@@H](C)C5)ccc4n3)cc2c(C)n1 [Compound 121, 2-(4,6-dimethylpyrazolo[1,5-a]pyrazin-2-yl)-7-[(3S)-3-methylpiperazin-1-yl]-4H-pyrido[1,2-a]pyrimidin-4-one]",< 0.1,***** (a fold increase >1.65 is indicated by five stars (*****)),192 to 194,**** (an EC1.5x≤0.3 μM is indicated by four stars (****))
"COc1ccc(-c2cc(=O)n3cc(-c4ccnc(C)c4)ccc3n2)cc1OC [Compound 122, 2-(3,4-dimethoxyphenyl)-7-(2-methylpyridin-4-yl)-4H-pyrido[1,2-a]pyrimidin-4-one]",1 to 3,*** (a fold increase between >1.35 and ≤1.5 is indicated by three stars (***)),197 to 200,–
"O=c1cc(-c2ccc3nc(C(F)(F)F)cn3c2)nc2ccc(N3CCNCC3)cn12 [Compound 123, 7-(piperazin-1-yl)-2-[2-(trifluoromethyl)imidazo[1,2-a]pyridin-6-yl]-4H-pyrido[1,2-a]pyrimidin-4-one]",1 to 3,* (A maximum fold increase of ≤1.2 is indicated by one star (*)),250 to 255,–
"CCc1cn2cc(-c3cc(=O)n4cc(N5CCNCC5)ccc4n3)ccc2n1 [Compound 124, 2-(2-ethylimidazo[1,2-a]pyridin-6-yl)-7-(piperazin-1-yl)-4H-pyrido[1,2-a]pyrimidin-4-one]",0.3 to 1,** (a fold increase between >1.2 and ≤1.35 is indicated by two stars (**)),228 to 232,–
"Cc1nc2ccc(-c3cc(=O)n4cc(N5CCNCC5)ccc4n3)cn2c1C [Compound 125, 2-(2,3-dimethylimidazo[1,2-a]pyridin-6-yl)-7-(piperazin-1-yl)-4H-pyrido[1,2-a]pyrimidin-4-one]",0.3 to 1,*** (a fold increase between >1.35 and ≤1.5 is indicated by three stars (***)),236 to 240,–
"COc1ccc(-c2cc(=O)n3cc(N4C[C@H]5CNC[C@H]5C4)ccc3n2)cc1OC [Compound 126, 2-(3,4-dimethoxyphenyl)-7-[(3aR,6aS)-hexahydropyrrolo[3,4-c]pyrrol-2(1H)-yl]-4H-pyrido[1,2-a]pyrimidin-4-one]",0.1 to 0.3,** (a fold increase between >1.2 and ≤1.35 is indicated by two stars (**)),286 to 290,–
"COc1ccc(-c2cc(=O)n3cc(N4CCC(N)CC4)ccc3n2)cc1OC [Compound 127, 7-(4-aminopiperidin-1-yl)-2-(3,4-dimethoxyphenyl)-4H-pyrido[1,2-a]pyrimidin-4-one]",0.3 to 1,*** (a fold increase between >1.35 and ≤1.5 is indicated by three stars (***)),182 to 185,* (An EC1.5× for Smn protein expression between >3 μM and ≤10 μM is indicated by one star (*))
"Cn1ccc2cc(-c3cc(=O)n4cc(N5CCNCC5)ccc4n3)cnc21 [Compound 129, 2-(1-methyl-1H-pyrrolo[2,3-b]pyridin-5-yl)-7-(piperazin-1-yl)-4H-pyrido[1,2-a]pyrimidin-4-one]",0.3 to 1,*** (a fold increase between >1.35 and ≤1.5 is indicated by three stars (***)),230 to 233,* (An EC1.5× for Smn protein expression between >3 μM and ≤10 μM is indicated by one star (*))
"C[C@@H]1CN(c2ccc3nc(-c4cnc5c(ccn5C)c4)cc(=O)n3c2)C[C@H](C)N1 [Compound 130, 7-[(3R,5S)-3,5-dimethylpiperazin-1-yl]-2-(1-methyl-1H-pyrrolo[2,3-b]pyridin-5-yl)-4H-pyrido[1,2-a]pyrimidin-4-one]",1 to 3,*** (a fold increase between >1.35 and ≤1.5 is indicated by three stars (***)),265 to 268,* (An EC1.5× for Smn protein expression between >3 μM and ≤10 μM is indicated by one star (*))

# Reference: patent publication US11753407B2, “Compounds for treating spinal muscular atrophy” (PTC Therapeutics, Inc., priority 2012, dated 2023)
